Data from article PMC2359919, “Molecular targeting of retinoic acid metabolism in neuroblastoma: the role of the CYP26 inhibitor R116010 in vitro and in vivo” (British Journal of Cancer, 2007).

How the values were obtained:
[1] = system: mouse mammary carcinoma model; parameters: method as in Van Heusden et al, 2002; conditions: ref Van Heusden et al, 2002; cited from earlier work
RARβ = RARβ mRNA expression in SH-SY5Y cells, real-time PCR; assay type: cell-based, human; conditions: ATRA 0.01 μM or 13cisRA 0.1 μM with R116010 1 μM vs retinoid alone, 24 h
Protocol: (§1) SH-SY5Y, SH-EP (N- and S-type cells respectively derived from the parental line SK-N-SH), LAN6, IMR-32, NGP and GIMEN neuroblastoma cell lines were cultured routinely in RPMI 1640 medium containing fetal calf serum (10%) and L-glutamine (2 mM). Cells were grown at 37°C in a humidified incubator containing 5% CO2.
(§2) 13-cis-Retinoic acid and ATRA were dissolved in DMSO and diluted in cell culture medium to obtain final concentrations of 0.1–10 μM. The final concentration of DMSO in all cases was <0.2%. All experiments were performed in dim light and tubes containing retinoids were wrapped in aluminium foil.
(§3) RNA was reverse-transcribed using Promega's Reverse Transcription System according to the manufacturer's instructions, using random hexamer primers. Real-time PCR was performed on 20 ng cDNA using TaqMan gene expression products for human CYP26A1, CYP26B1, CRABPII, RARβ and MYCN in combination with the TaqMan Universal PCR master mix (Applied Biosystems, Warrington, UK). […] As internal standard, β-actin was measured simultaneously using the endogenous control assay provided by Applied Biosystems. […] Standard curves were generated from serial dilutions of cDNA prepared from cells treated with ATRA (1 μM) and the data were analysed using the GeneAmp Sequence Detection System software. CYP26C1 expression was analysed as described previously ([Taimi et al, 2004]).

MYCN = MYCN mRNA expression in MYCN-amplified NGP cells, real-time PCR; assay type: cell-based, human
Protocol: as §1, §2, §3

[2] = system: SH-SY5Y, NGP, SH-EP and GIMEN cells; assay: Intracellular all-trans-4-oxo-RA levels in neuroblastoma cells, LC/MS; assay type: cell-based, human
Protocol: as §1, §2
(§4) Cell pellets obtained from retinoid incubations were re-suspended in 2 ml cell culture medium and disrupted by passing the samples several times through a syringe and hypodermic needle (25G × 1 inches, 0.5 mm × 25 mm; Terumo, Somerset, NJ, USA). Tumour and liver tissues were re-suspended in PBS and homogenised (T25 homogeniser, IKA Laboratories, Staufen, Germany). Retinoids were extracted as described previously ([Veal et al, 2002]; [Armstrong et al, 2005b]). Samples were reconstituted in 200 μl mobile phase A (n-hexane:dichloromethane:propan-2-ol, 400 : 1 : 0.27) and analysed by normal-phase HPLC as described previously ([Veal et al, 2002]). For LC/MS analysis, samples were reconstituted in 200 μl mobile phase A (50% acetonitrile, 50% (0.2%) acetic acid, v v^−1).
Resolution of retinoids was performed with a Luna C18(2) column (3 μm, 50 mm × 2 mm) using a Perkin Elmer LC (Beaconsfield, UK) system, consisting of a vacuum degasser, two series 200 pumps, a thermostatically controlled series 200 autosampler and a Waters 2487 UV absorbance detector. Retinoic isomers and metabolites were separated by gradient reversed-phase chromatography. An injection volume of 20 μl with a flow rate of 0.2 ml min^−1 was used with mobile phase A (50% acetonitrile, 50% (0.2%) acetic acid, v v^−1) and mobile phase B (acetonitrile, 0.1% acetic acid, v v^−1). Linear gradients were employed between the specified times as follows: 0, 100% A; 5 min, 100% A; 15 min, 100% B; 20 min, 100% B; 23 min, 100% A; 35 min, 100% A. An Applied Biosystems (Warrington, UK) API-2000 LC/MS/MS triple Q (quadrupole) mass spectrometer with electrospray ionisation source, controlled by Analyst software, was operated in single quadrupole negative mode for the detection of compounds.

CRABP II = CRABP II mRNA expression in SH-SY5Y cells, real-time PCR; assay type: cell-based, human; conditions: ATRA 0.01 μM or 13cisRA 0.1 μM with R116010 1 μM vs retinoid alone, 24 h
Protocol: as §1, §2, §3

[3] = system: SH-SY5Y, NGP, SH-EP and GIMEN cells; assay: Intracellular ATRA and 13cisRA concentrations in neuroblastoma cells, normal-phase HPLC; assay type: cell-based, human
Protocol: as §1, §2, §4
Quantification of retinoid levels was carried out by HPLC analysis using a Waters 2690 Separations Module and 996 Photodiode array detector (Waters Ltd, Elstree, UK) and Waters Millennium software for data acquisition. Cell volumes were determined as described previously ([Veal et al, 2002]), and intracellular RA concentrations were expressed in micromolars.

CYP26A1 = CYP26A1 mRNA expression in neuroblastoma cells, real-time PCR; assay type: cell-based, human; conditions: 0.1 μM retinoid, 24 h; panel of neuroblastoma cell lines; relative to SH-SY5Y cells treated with 0.01 μM ATRA
Protocol: as §1, §2
CYP26 short hairpin RNAs (shRNAs) were generated using the siSTRIKE U6 Hairpin Cloning System (Promega, Southampton, UK). The CYP26A1, B1 and Ctrl siRNA sequences were designed using Promega software. […]
as §3, with “primers.” for “primers. Real-time PCR was performed on 20 ng cDNA using TaqMan gene expression products for human CYP26A1, CYP26B1, CRABPII, RARβ and MYCN in combination with the TaqMan Universal PCR master mix (Applied Biosystems, Warrington, UK).”

neuroblastoma cell lines = system: neuroblastoma cell lines; parameters: method as in Villablanca et al, 1995; conditions: ref Villablanca et al, 1995; cited from earlier work

C[C@@H]([C@H](c1ccc(Nc2nc3ccccc3s2)cc1)n1ccnc1)N(C)C [R116010]
Antitumour activity as a single agent [1]: exhibits antitumour activity
Effect on RARβ expression, co-incubation with retinoid (RARβ): significant increases
Effect on downregulation of MYCN expression by ATRA or 13cisRA (MYCN; ATRA or 13cisRA 0.1 μM with R116010 1 μM vs retinoid alone): enhanced
Effect on MYCN expression, R116010 alone (MYCN; R116010 alone (1 μM)): small but significant increase
Decrease in AT-4-oxo-RA levels ([2]; NGP cells, 10 μM 13cisRA with 10 μM R116010, 24 h): 13.2 fold
Reduction in intracellular AT-4-oxo-RA levels ([2]; NGP cells, 10 μM ATRA with 10 μM R116010, 24 h): 3.8 fold
Effect on AT-4-oxo-RA levels ([2]; SH-EP and GIMEN cells, 10 μM 13cisRA with 10 μM R116010, 24 h): no significant effect
Decrease in AT-4-oxo-RA levels ([2]; SH-SY5Y cells, 10 μM 13cisRA with 10 μM R116010, 24 h): 3.5 fold
Reduction in intracellular AT-4-oxo-RA levels ([2]; SH-SY5Y cells, 10 μM ATRA with 10 μM R116010, 24 h): 3 fold
Effect on intracellular AT-4-oxo-RA levels ([2]; low CYP26-expressing cell lines (SH-EP, GIMEN), 10 μM ATRA with 10 μM R116010, 24 h): no significant effect
Effect on CRABP II expression, co-incubation with retinoid (CRABP II): significant increases
Effect on ATRA concentrations after incubation with 13cisRA ([3]; NGP cells, 10 μM 13cisRA with 1 or 10 μM R116010, 24 h): similar, although nonsignificant, trend
Effect on ATRA levels after incubation with 13cisRA ([3]; SH-EP or GIMEN cells, 10 μM 13cisRA with 1 or 10 μM R116010, 24 h): no observable effect
Effect on intracellular ATRA concentrations after ATRA treatment ([3]; SH-EP or GIMEN cells, 10 μM ATRA with 1 or 10 μM R116010, 24 h): no effect
Effect on intracellular ATRA concentrations after ATRA treatment ([3]; SH-SY5Y and NGP cells, 10 μM ATRA with 1 or 10 μM R116010, 24 h): significant increases
Effect on ATRA concentrations after incubation with 13cisRA ([3]; SH-SY5Y cells, 10 μM 13cisRA with 1 or 10 μM R116010, 24 h): significant increase
Effect on 13cisRA concentrations after incubation with 13cisRA ([3]; all four cell lines, 10 μM 13cisRA with 1 or 10 μM R116010, 24 h): no significant changes
Effect on 13cisRA levels after incubation with ATRA ([3]; any of the cell lines, 10 μM ATRA with 1 or 10 μM R116010, 24 h): no effect

CC1=C(/C=C/C(C)=C/C=C/C(C)=C/C(=O)O)C(C)(C)CCC1 [ATRA, all-trans-retinoic acid]
CYP26A1 induction (CYP26A1): induced to various extents in SH-SY5Y, LAN6 and NGP cells

CC1=C(/C=C/C(C)=C/C=C/C(C)=C\C(=O)O)C(C)(C)CCC1 [13cisRA, 13-cis-retinoic acid]
Concentration effective against neuroblastoma cell lines in vitro (neuroblastoma cell lines): 5 µM
